# Test results published in patent US20080221150A1, “Prevention of Neurodegeneration by Macrolide Antibiotics” (priority 2005, published 2008).
# “Also recorded” adds a separate entry of the source.
# Experiments:
# [1] = system: cerebellar granule neurons (CGNs); experiment: Cell viability via Calcein AM fluorogenic conversion assay; conditions: for effect on staurosporine-induced decrease in viability: 1 nM bafilomycin A1 + 0.1 μM staurosporine; for chloroquine-induced decrease in viability / cell death: 1 nM macrolide + 20 μM chloroquine
# Description: (§1) Cerebellar granule neurons (CGNs) were isolated from postnatal day 7 mice as previously described^40. CGNs were plated in poly-L-lysine coated plates at a density of 1250 cells per mm^2. 48 well plates were used for viability and caspase activity assays; 100 mm dishes were used for western blot analysis; and 4 well […] chamber slides (Agene) were used for analysis of vacuolar acidification.
# (§2) CGNs were treated in vitro on day 4. […] Separate cultures of CGNs were also treated for 24 h with staurosporine (0.1 μM), in the presence or absence of BafA1 (1-10 nM final).
# (§3) Cell viability (via Calcein AM fluorogenic conversion assay; Molecular Probes, Eugene, Oreg.) and caspase-3-like activity (via fluorogenic DEVD cleavage assay) were performed as previously described 40 and were expressed relative to untreated controls.
# [2] = system: caspase-3-like activity; experiment: Caspase-3-like activity via fluorogenic DEVD cleavage assay in CGNs; assay type: cell-based, mice
# Description: as §1, §2, §3
# [3] = system: vacuolar ATPase; conditions: cited from earlier work
# [4] = system: acidic vesicles; experiment: Labeling of acidic vesicles in CGNs with Lysotracker Red (LTR); assay type: cell-based, mice
# Description: as §1, §2
# (§4) Conditioned media was removed from CGNs grown in 4 well, permanox chamber slides. LTR (0.05 μM; Molecular Probes, Eugene, Oreg.) and Calcein AM (2.5 μg/ml; Molecular Probes, Eugene, Oreg.) were prepared in Locke's Buffer and added to each well for 30 min, 37° C. After this incubation the cells were washed with Locke's Buffer and cover-slipped. Images were captured using a Carl Zeiss Axioskop microscope equipped with epifluorescence.
# [5] = system: p18 Bax; experiment: Western blot of p18 Bax in CGNs; assay type: cell-based, mice
# Description: as §1
# CGNs were treated in vitro on day 4. […]
# Cells were detached from their substrate by incubation for 5 min at 37° C. with Accutase (Innovative Cell Technologies, San Diego, Calif.). Conditioned media and cells were centrifuged (700×g, 5 min, 4° C.). The supernatant was aspirated and re-suspended with 1 ml ice-cold PBS, then centrifuged again (700×g, 5 min, 4° C.). The resultant pellet was re-suspended in lysis buffer containing 25 mM HEPES, 5 mM EDTA, 5 mM MgCl2, 1% SDS, 1% Triton X-100, 1 mM PMSF, 1% protease inhibitor cocktail and 1% phosphatase inhibitor cocktail (Sigma). Cell lysates were sonicated to shear DNA and then centrifuged (10,000 rpm, 10 min, 4° C.), and the resultant supernatant (cleared whole cell lysates) was transferred to a fresh tube. Protein levels were determined subsequently via BCA assay (Pierce). […] Signal was detected using Supersignal chemiluminescence (Pierce). […] Blots were scanned for densitometric analysis using Biorad Quantity One® software.
# [6] = system: cerebellar granule neurons (CGNs); experiment: Viable CGNs by viability marker calcein AM during LTR labeling; assay type: cell-based, mice; conditions: 24 h
# Description: as §1, §2, §4
# [7] = system: cleaved caspase-3; experiment: Western blot of cleaved caspase-3 in CGN lysates; assay type: cell-based, mice
# Description: as §1, §2
# Cells were detached from their substrate by incubation for 5 min at 37° C. with Accutase (Innovative Cell Technologies, San Diego, Calif.). Conditioned media and cells were centrifuged (700×g, 5 min, 4° C.). The supernatant was aspirated and re-suspended with 1 ml ice-cold PBS, then centrifuged again (700×g, 5 min, 4° C.). The resultant pellet was re-suspended in lysis buffer containing 25 mM HEPES, 5 mM EDTA, 5 mM MgCl2, 1% SDS, 1% Triton X-100, 1 mM PMSF, 1% protease inhibitor cocktail and 1% phosphatase inhibitor cocktail (Sigma). Cell lysates were sonicated to shear DNA and then centrifuged (10,000 rpm, 10 min, 4° C.), and the resultant supernatant (cleared whole cell lysates) was transferred to a fresh tube. Protein levels were determined subsequently via BCA assay (Pierce). Equal amounts of protein were resolved via SDS-PAGE and transferred to PVDF. After transfer blots were cut in half at approximately 37 kDa. […] Blots were blocked for 1 h, RT (5% milk), followed by overnight incubation with primary antibody. Blots were washed with 1×TBS containing 0.1% Tween 20, then incubated with secondary antibody (goat anti-rabbit IgG, Biorad) for 1 h, RT and subsequently washed. Signal was detected using Supersignal chemiluminescence (Pierce). […] Blots were scanned for densitometric analysis using Biorad Quantity One® software.
# [8] = system: LC3; experiment: Western blot of LC3 processing (LC3-I, LC3-II) in CGN lysates; assay type: cell-based, mice
# Description: as §1, §2
# Cells were detached from their substrate by incubation for 5 min at 37° C. with Accutase (Innovative Cell Technologies, San Diego, Calif.). Conditioned media and cells were centrifuged (700×g, 5 min, 4° C.). The supernatant was aspirated and re-suspended with 1 ml ice-cold PBS, then centrifuged again (700×g, 5 min, 4° C.). The resultant pellet was re-suspended in lysis buffer containing 25 mM HEPES, 5 mM EDTA, 5 mM MgCl2, 1% SDS, 1% Triton X-100, 1 mM PMSF, 1% protease inhibitor cocktail and 1% phosphatase inhibitor cocktail (Sigma). Cell lysates were sonicated to shear DNA and then centrifuged (10,000 rpm, 10 min, 4° C.), and the resultant supernatant (cleared whole cell lysates) was transferred to a fresh tube. Protein levels were determined subsequently via BCA assay (Pierce). Equal amounts of protein were resolved via SDS-PAGE and transferred to PVDF. After transfer blots were cut in half at approximately 37 kDa. […] Blots were blocked for 1 h, RT (5% milk), followed by overnight incubation with primary antibody. Blots were washed with 1×TBS containing 0.1% Tween 20, then incubated with secondary antibody (goat anti-rabbit IgG, Biorad) for 1 h, RT and subsequently washed. Signal was detected using Supersignal chemiluminescence (Pierce). After detection of cleaved caspase-3, the bottom blot was stripped using Restore Western Blot stripping buffer (Pierce) then probed with rabbit anti-LC3 (provided by Uchiyama laboratory), using the same western blot protocol as described above. Blots were scanned for densitometric analysis using Biorad Quantity One® software.
# [9] = in vitro; conditions: mouse
# Description: as §1, §2, §3
# [10] = system: Bid; experiment: Cleavage of Bid in CGNs; assay type: cell-based, mice; conditions: chloroquine; data not shown
# [11] = + chloroquine 20 μM for 24 hours, wild-type CGNs
# [12] = 10 nM bafilomycin A1, 24 hours, Bax deficiency
# [13] = all concentrations of bafilomycin A1 tested + 20 μM chloroquine, 24 hours
# [14] = bafilomycin A1 by itself, 24 hours
# [15] = co-addition with 20 μM chloroquine, 24 hours
# [16] = 10 nM bafilomycin A1 by itself, 24 hours
# [17] = bafilomycin A1 0.3-10 nM + 20 μM chloroquine, 24 hours
smiles,measurement,setting,value
"COC(=O)CC(NC(=O)OC(C)(C)C)C(=O)CF (stereo not shown) [BOC-aspartyl(Ome)-fluoromethyl ketone, reference compound]",effect on chloroquine-induced death,[1]; [11],did not attenuate
same,effect on chloroquine-induced increase in caspase-3-like activity,[2]; [11],significantly attenuate
CO/C1=C\C(C)=C\[C@@H](C)[C@@H](O)[C@@H](C)C/C(C)=C/C=C/[C@H](OC)[C@@H]([C@@H](C)[C@@H](O)[C@H](C)[C@@]2(O)C[C@@H](O)[C@H](C)[C@@H](C(C)C)O2)OC1=O [bafilomycin A1],concentrations reported to inhibit vacuolar ATPase,[3],greater than 1 nM
same,effect on staurosporine-induced decrease in viability,[1]; 24 hours,not altered
same,effect on staurosporine-induced decrease in viability,"[1]; 24 hours, listed as Bafilomycin A1",did not prevent the decrease in viability
same,viability,"[1]; 1 nM bafilomycin A1 + 20 μM chloroquine, 24 hours",88%
same,viability,"[1]; 10 nM bafilomycin A1 + 0.1 μM staurosporine, 24 hours",20%
same,reduction in viability in Bax-deficient CGNs,[1]; [12],prevented
same,chloroquine-induced decrease in viability,"[1]; 10-100 nM bafilomycin A1 + 20 μM chloroquine, 24 hours",still attenuated; also recorded: inhibited chloroquine-induced death
same,chloroquine-induced decrease in viability,[1]; [13],significantly attenuated
same,concentrations that did not decrease viability,[1]; [14],≤ 1 nM
same,concentrations that significantly decreased viability,[1]; [14],≥ 10 nM
same,concentration of maximal attenuation of chloroquine-induced decrease in viability,[1]; [15],1 nM
same,LTR staining,"[4]; 1 nM bafilomycin A1 + 20 μM chloroquine, 24 h, versus either alone",increase in LTR staining intensity
same,LTR staining / vacuolar acidification,"[4]; 1 nM bafilomycin A1 by itself, 24 h",did not alter the staining pattern of LTR; also recorded: did not alter vacuolar acidification
same,LTR staining / vacuolar acidification,"[4]; 10 nM bafilomycin A1, presence or absence of chloroquine, 24 h",prevented any detection of vacuolar acidification by LTR; also recorded: completely prevents LTR staining
same,increase in p18 Bax levels,"[5]; 1 nM bafilomycin A1 with chloroquine 20 μM, 24 hours",inhibits the increase in p18 Bax levels; also recorded: dramatically attenuated
same,reduction of chloroquine-induced caspase-3-like activity,"[2]; 1 nM bafilomycin A1 + 20 μM chloroquine, 24 hours, maximal",3 fold
same,increase in caspase-3-like activity in Bax-deficient CGNs,[2]; [12],prevented
same,concentrations that did not induce caspase-3-like activity,[2]; [14],≤ 1 nM
same,concentrations that increased caspase-3-like activity,[2]; [14],≥ 10 nM
same,concentrations that reduced chloroquine-induced increase in caspase-3-like activity,[2]; [15],0.3 to 1 nM
same,numbers of viable neurons,[6]; 1 nM bafilomycin A1 + 20 μM chloroquine,increased numbers of viable neurons
same,viability by calcein AM,[6]; 1 nM bafilomycin A1 by itself,nor did it reduce viability
same,numbers of viable CGNs,"[6]; 10 nM bafilomycin A1, presence or absence of chloroquine",decreased numbers of viable CGNs
same,concentration at which increase in cleaved caspase-3 was apparent,[7]; [14],10 nM
same,concentrations that attenuated chloroquine-induced increase in cleaved caspase-3,"[7]; co-treatment with 20 μM chloroquine, 24 hours",≤ 1 nM
same,levels of LC3-II,[8]; [16],dramatic increase
same,ratio of LC3-II/LC3-I,[8]; [16],increase
same,ratio of LC3-II to LC3-I,[8]; [13],reduction
same,chloroquine-induced levels of LC3-II,[8]; [17],did not attenuate
same,levels of LC3-I,[8]; [17],appeared to increase
same,levels of LC3-I,"[8]; bafilomycin A1 by itself, any concentration, 24 hours",did not change
CO/C1=C\C(C)=C\[C@@H](C)[C@@H](O)[C@@H](C)C/C(C)=C/C=C/[C@H](OC)[C@@H]([C@@H](C)[C@@H](O)[C@H](C)[C@@]2(O)C[C@@H](OC(=O)/C=C/C(=O)NC3=C(O)CCC3=O)[C@H](C)[C@@H](C(C)C)O2)OC1=O [bafilomycin B1],chloroquine-induced decrease in viability / cell death,[1]; data not shown,inhibited chloroquine induced cell death
same,chloroquine-induced decrease in viability / cell death,"[1]; data not shown, listed as Bafilomycin B1",attenuated
"CCN(CC)CCCC(C)Nc1ccnc2cc(Cl)ccc12 (stereo not shown) [chloroquine, reference compound]","viability at 8 h, 20 μM",[9],93%
same,"viability at 24 h, 20 μM",[9],24%
same,"viability at 24 h, 40 μM",[9],8%
same,LTR staining,"[4]; 20 μM chloroquine, 24 hours, surviving CGNs versus control",greater intensity of LTR staining
same,amount of p18 Bax,[5]; chloroquine 20 μM for 24 hours,increased
same,cleavage of Bid,[10],not increased
same,cleaved caspase-3 temporal pattern,"[7]; 20 μM chloroquine, 4-48 hours",most robust at 16 hours
same,levels of LC3-I,"[8]; 20 μM chloroquine, 24-48 hours, versus control",appeared lower
same,chloroquine-induced increase in LC3-II in Bax-deficient CGNs,"[8]; 20 μM chloroquine, 24 hours, Bax deficiency",did not prevent
same,time to elevation of LC3-II,"[8]; 20 μM chloroquine, remained high through 48 hours",≤ 4 h
C/C=C/[C@H]1O[C@@](O)([C@@H](C)[C@H](O)[C@H](C)[C@H]2OC(=O)/C(OC)=C/C(C)=C/[C@@H](C)[C@@H](O)[C@@H](CC)[C@@H](O)[C@H](C)C/C(C)=C/C=C/[C@@H]2OC)C[C@@H](O)[C@@H]1C [concanamycin],chloroquine-induced decrease in viability / cell death,[1]; data not shown,inhibited chloroquine induced cell death
"C[C@@H]1C[C@@H]([C@H](O)CC2CC(=O)NC(=O)C2)C(=O)[C@@H](C)C1 [cycloheximide, reference compound]",effect on magnitude of cell death induced by chloroquine,"[1]; cycloheximide 0.1-1 mg/ml with chloroquine, data not shown",did not alter
"CN[C@@H]1C[C@H]2O[C@@](C)([C@@H]1OC)n1c3ccccc3c3c4c(c5c6ccccc6n2c5c31)C(=O)NC4 [staurosporine, reference compound]","viability at 24 h, 0.1 μM",[9],44%
same,caspase-3-like activity,"[2]; 0.1 μM staurosporine, data not shown",significantly increases
